According to patent publication US5958875A, “Synthetic peptides derivatives with nerve growth factor-like neurotrophic activity” (The Regents of the University of California, priority 1996, dated 1999):
Entries after “also recorded” stand apart in the source; their conditions may differ.

B1: NGF: Mouse submaxillary β-NGF purified via 7S NGF (protein, UniProt P01139 122-241, looked up)
Beta-nerve growth factor: SSTHPVFHMGEFSVCDSVSVWVGDKTTATDIKGKEVTVLAEVNINNSVFRQYFFETKCRASNPVESGCRGIDSKHWNSYCTTTHTFVKALTTDEKQAAWRFIRIDTACVCVLSRKATRRG
modifications: Beta-nerve growth factor
notes: Mouse submaxillary β-NGF purified via 7S NGF

Experiments:
[1] = system: Chick embryo DRG neurons; test: neurite outgrowth of cultured neurons; type: cell-based
Protocol: (§1) Bioassays were performed as previously described (Manthorpe et al, "An automated colorimetric microassay for neuronotrophic factors", Dev. Brain Res. 25:191-198 (1986)). Dorsal root ganglia were dissected from embryonic day 8 chick embryos and placed in calcium and magnesium-free Dulbecco's balanced salt solution on ice. […] During this incubation non-neuronal cells (Schwann cells, fibroblasts) more readily attached to the substratum leaving a supernatant containing an enriched neuronal population (80-85% neurons). […]
Neuronal survival and neurite outgrowth were assessed by a combination of morphological criteria described previously (Longo et al, "The in vitro biological effect of nerve growth factor is inhibited by synthetic peptides" Cell Regulation 1:189-195 (1990)) and an MTT calorimetric assay (Manthorpe et al., "An automated colorimetric microassay for neuronotrophic factors", Dev. Brain Res. 25:191-198 (1986)). […] The blue product can be quantitated by lysing cells with acid alcohol to solubilize the blue product and measuring overall optical density or by counting the number per area of intact surviving neurons with blue dye. […] For each peptide or NGF concentration, duplicate wells were counted in each bioassay and four values (two strips counted/well) averaged. In other assays, cells were lysed at 24 hours in acid alcohol and the MTT product was dissolved and quantified. […]

[2] = system: Chick embryo DRG neurons; test: automated MTT neurotrophic assay; type: cell-based; settings: HPLC fractions of ten cyclized/oxidized NGF 29-36 region peptides
Protocol: as §1
(§2) The bioassays used for measuring the NGF agonist activity of the compounds of this invention were initially characterized using NGF as a control. […] The neurotrophic activity of NGF is most easily assessed by measuring the number of cells surviving and bearing neurites; however, the lack of neurites in peptide-supported cultures required the use of additional criteria to assess peptide effect. In order to more accurately determine neuronal survival, MTT was added to cultures at 16 hours and cultures assessed under phase contrast microscopy at 24 hours. Intact cells characteristic of surviving neurons which also contained blue MTT product were counted. […] In subsequent studies, activity of both peptides and NGF was assessed by counting the number of intact cells with blue MTT product (morphological/MTT assay) and by the automated MTT assay. […]

[3] = system: Chick embryo DRG neurons; test: morphological/MTT assay of neuronal survival; type: cell-based; settings: HPLC fractions of cyclized/oxidized, scrambled and linear P7
Protocol: as §1, §2

[4] = target: T1, NGF p75 receptor (Gallus gallus, UniProt P18519); test: survival-promoting activity in the presence of p75 antiserum (antibody 9651); type: cell-based, chick; settings: p75 antiserum 1:100 final dilution; morphological/MTT assay
T1 construct: Dorsal root ganglia were dissected from embryonic day 8 chick embryos; endogenous in cells; host or cells: primary neurons dissociated from embryonic day 8 chick dorsal root ganglia
T1 sequence (P18519 20-416): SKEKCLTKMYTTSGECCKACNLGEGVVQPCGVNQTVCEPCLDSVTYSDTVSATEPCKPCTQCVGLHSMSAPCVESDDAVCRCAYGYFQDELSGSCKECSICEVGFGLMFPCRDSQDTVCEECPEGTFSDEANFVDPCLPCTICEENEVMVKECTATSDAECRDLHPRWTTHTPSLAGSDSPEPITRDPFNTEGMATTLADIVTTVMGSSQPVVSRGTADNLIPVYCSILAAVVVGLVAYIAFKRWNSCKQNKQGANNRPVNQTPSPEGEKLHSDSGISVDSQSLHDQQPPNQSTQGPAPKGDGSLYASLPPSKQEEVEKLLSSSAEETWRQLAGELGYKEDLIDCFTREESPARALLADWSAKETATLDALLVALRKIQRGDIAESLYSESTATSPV
Protocol: Antiserum (antibody 9651) directed against the third and fourth cysteine rich repeats of the extracellular domain of mouse p75 was obtained as described in Huber (infra). […] Antiserum and control non-immune serum were tested at final dilutions of 1:100 in the presence of NGF or peptide.
To determine if activity of P7 and P7-scrambled peptides was dependent on p75 , their activity in the presence of p75 antiserum (1:100 final dilution) which inhibits NGF neurotrophic activity was measured. […] In 15 bioassays, control background survival was 14±2% (S.E.) of the NGF maximum compared to a background in the presence of p75 antiserum of 13±2% in 5 of the same 15 assays.

| Molecule | neurite outgrowth (in words) [1] | survival-promoting activity (in words) [2] | survival-promoting activity of P7 forms (in words) [3] | inhibition of survival-promoting activity by p75 antiserum, average over the three concentrations tested [4] [%] |
| --- | --- | --- | --- | --- |
| IPenKGKEVCT [Peptide P7] | continued to lack neurites | highest activity at the lowest concentrations; also recorded: greatest survival-promoting activity at the lowest concentration | showed activity; also recorded: significantly greater activity than P7-scrambled peptides | – |
| B1 | – | – | – | 40 |
